Measured values as given in ChEMBL document CHEMBL3885881, “DrugMatrix”.
Several values for one entry are separate records, joined by “and”; a condition that tells them apart may be missing. Equal values may be shown once.

Organism: Rattus norvegicus
Experiment: DrugMatrix - Regimen: Daily Repeat
Type: toxicity, organism-based, Sprague-Dawley
Parameters: regimen Daily Repeat, gender Male, age 6-8 weeks
Settings: in vivo, ip, route intraperitoneal, vehicle 100 % SALINE; for ABSOLUTE BASOPHIL / ABSOLUTE EOSINOPHIL / ABSOLUTE LYMPHOCYTE / ABSOLUTE MONOCYTE / ABSOLUTE SEGMENTED NEUTROPHIL / BASOPHIL / EOSINOPHIL / ERYTHROCYTE COUNT / HEMATOCRIT / HEMOGLOBIN / LEUKOCYTE COUNT / LYMPHOCYTE / MEAN CORPUSCULAR HEMOGLOBIN / MEAN CORPUSCULAR HEMOGLOBIN CONCENTRATION / MEAN CORPUSCULAR VOLUME / MONOCYTE / NEUTROPHIL / PLATELET COUNT: tissue Blood; for ALANINE AMINOTRANSFERASE / ALBUMIN / ALKALINE PHOSPHATASE / ASPARTATE AMINOTRANSFERASE / BLOOD UREA NITROGEN / CARBON DIOXIDE / CHLORIDE / CHOLESTEROL / CREATINE PHOSPHOKINASE / CREATININE / GLUCOSE / LACTATE DEHYDROGENASE / LIPASE / PHOSPHORUS / POTASSIUM / SODIUM / TOTAL BILIRUBIN / TOTAL PROTEIN / URIC ACID: tissue Plasma
[1] = 0 mg/kg, 120 h, dose level Control, time 5 day
[2] = 0 mg/kg, […], dose level Control, time 14 day
[3] = 0 mg/kg, […], dose level Control, time 28 day
[4] = 40 mg/kg, 120 h, dose level High, time 5 day
[5] = 40 mg/kg, […], dose level High, time 14 day
[6] = 40 mg/kg, […], dose level High, time 28 day

NC[C@H]1O[C@H](O[C@H]2[C@H](O)[C@@H](O[C@H]3O[C@H](CO)[C@@H](O)[C@H](N)[C@H]3O)[C@H](N)C[C@@H]2N)[C@H](N)C[C@@H]1O [TOBRAMYCIN]
ABSOLUTE BASOPHIL [1]: 32 cells/µL | ABSOLUTE EOSINOPHIL [1]: 110 cells/µL | ABSOLUTE LYMPHOCYTE [1]: 6630 cells/µL | ABSOLUTE MONOCYTE [1]: 140 cells/µL | ABSOLUTE SEGMENTED NEUTROPHIL [1]: 1170 cells/µL | BASOPHIL [1]: 0.38% and 0.35% | EOSINOPHIL [1]: 1.28% and 0.62% | ERYTHROCYTE COUNT [1]: 7.45 x10E6/uL and 7.26 x10E6/uL | HEMATOCRIT [1]: 45.74% and 47.97% | HEMOGLOBIN [1]: 14.72 G/DL and 15.38 G/DL | LEUKOCYTE COUNT [1]: 8.11 x10E3/uL and 8.68 x10E3/uL | LYMPHOCYTE [1]: 81.3% and 86.77% | MEAN CORPUSCULAR HEMOGLOBIN [1]: 19.76 pg and 21.18 pg | MEAN CORPUSCULAR HEMOGLOBIN CONCENTRATION [1]: 32.16 G/DL and 32.05 G/DL | MEAN CORPUSCULAR VOLUME [1]: 61.38 fL and 66.15 fL | MONOCYTE [1]: 1.76% and 1.57% | NEUTROPHIL [1]: 14.9% and 9.53% | PLATELET COUNT [1]: 1322.4 x10E3/uL and 1786 x10E3/uL | ALANINE AMINOTRANSFERASE [1]: 25.8 u/L and 20.5 u/L | ALBUMIN [1]: 3.64 G/DL and 4.35 G/DL | ALKALINE PHOSPHATASE [1]: 233.6 u/L and 300 u/L | ASPARTATE AMINOTRANSFERASE [1]: 81.4 u/L and 86.75 u/L | BLOOD UREA NITROGEN [1]: 14.4 mg/dL and 17 mg/dL | CARBON DIOXIDE [1]: 29 mmol/L | CHLORIDE [1]: 105.6 MEQ/L and 106.25 MEQ/L | CHOLESTEROL [1]: 69.2 mg/dL and 51.25 mg/dL | CREATINE PHOSPHOKINASE [1]: 384.75 u/L | CREATININE [1]: 0.56 mg/dL and 0.47 mg/dL | GLUCOSE [1]: 125.4 mg/dL and 128.75 mg/dL | LACTATE DEHYDROGENASE [1]: 105.4 u/L and 145 u/L | LIPASE [1]: 22.4 u/L and 13.25 u/L | PHOSPHORUS [1]: 11.48 mg/dL and 11.8 mg/dL | POTASSIUM [1]: 5.52 MEQ/L and 6.58 MEQ/L | SODIUM [1]: 147 MEQ/L and 151 MEQ/L | TOTAL BILIRUBIN [1]: 0.2 mg/dL and 0.33 mg/dL | TOTAL PROTEIN [1]: 6.1 G/DL and 6.53 G/DL | URIC ACID [1]: 1.06 mg/dL and 1.95 mg/dL | ABSOLUTE BASOPHIL [2]: 130 cells/µL | ABSOLUTE EOSINOPHIL [2]: 140 cells/µL | ABSOLUTE LYMPHOCYTE [2]: 13500 cells/µL | ABSOLUTE MONOCYTE [2]: 400 cells/µL | ABSOLUTE SEGMENTED NEUTROPHIL [2]: 2330 cells/µL | HEMATOCRIT [2]: 45.98% | ABSOLUTE BASOPHIL [3]: 91 cells/µL | ABSOLUTE EOSINOPHIL [3]: 110 cells/µL | ABSOLUTE LYMPHOCYTE [3]: 9910 cells/µL | ABSOLUTE MONOCYTE [3]: 210 cells/µL | ABSOLUTE SEGMENTED NEUTROPHIL [3]: 1560 cells/µL | BASOPHIL [3]: 0.77% | EOSINOPHIL [3]: 0.92% | ERYTHROCYTE COUNT [3]: 8.21 x10E6/uL | HEMATOCRIT [3]: 47.53% | HEMOGLOBIN [3]: 15.65 G/DL | LEUKOCYTE COUNT [3]: 11.91 x10E3/uL | LYMPHOCYTE [3]: 83.34% | MEAN CORPUSCULAR HEMOGLOBIN [3]: 19.07 pg | MEAN CORPUSCULAR HEMOGLOBIN CONCENTRATION [3]: 32.93 G/DL | MEAN CORPUSCULAR VOLUME [3]: 57.9 fL | MONOCYTE [3]: 1.68% | NEUTROPHIL [3]: 12.97% | PLATELET COUNT [3]: 1323.8 x10E3/uL | CARBON DIOXIDE [2]: 25 mmol/L | ALANINE AMINOTRANSFERASE [3]: 30 u/L | ALBUMIN [3]: 3.71 G/DL | ALKALINE PHOSPHATASE [3]: 186.8 u/L | ASPARTATE AMINOTRANSFERASE [3]: 78.2 u/L | BLOOD UREA NITROGEN [3]: 14.2 mg/dL | CHLORIDE [3]: 105.4 MEQ/L | CHOLESTEROL [3]: 44.9 mg/dL | CREATINE PHOSPHOKINASE [3]: 334.3 u/L | CREATININE [3]: 0.6 mg/dL | GLUCOSE [3]: 147.2 mg/dL | LACTATE DEHYDROGENASE [3]: 123.1 u/L | LIPASE [3]: 9.6 u/L | PHOSPHORUS [3]: 10.01 mg/dL | POTASSIUM [3]: 6.57 MEQ/L | SODIUM [3]: 149.5 MEQ/L | TOTAL BILIRUBIN [3]: 0.21 mg/dL | TOTAL PROTEIN [3]: 6.66 G/DL | URIC ACID [3]: 1.26 mg/dL | ABSOLUTE BASOPHIL [4]: 78 cells/µL | ABSOLUTE EOSINOPHIL [4]: 120 cells/µL | ABSOLUTE LYMPHOCYTE [4]: 8040 cells/µL | ABSOLUTE MONOCYTE [4]: 210 cells/µL | ABSOLUTE SEGMENTED NEUTROPHIL [4]: 920 cells/µL | BASOPHIL [4]: 0.78% and 0.42% | EOSINOPHIL [4]: 1.32% and 0.7% | ERYTHROCYTE COUNT [4]: 7.61 x10E6/uL and 7.29 x10E6/uL | HEMATOCRIT [4]: 45.66% and 46.27% | HEMOGLOBIN [4]: 15.22 G/DL and 14.92 G/DL | LEUKOCYTE COUNT [4]: 9.41 x10E3/uL and 6.74 x10E3/uL | LYMPHOCYTE [4]: 84.78% and 87.65% | MEAN CORPUSCULAR HEMOGLOBIN [4]: 20.04 pg and 20.48 pg | MEAN CORPUSCULAR HEMOGLOBIN CONCENTRATION [4]: 33.38 G/DL and 32.25 G/DL | MEAN CORPUSCULAR VOLUME [4]: 60.02 fL and 63.45 fL | MONOCYTE [4]: 2.34% and 1.52% | NEUTROPHIL [4]: 10.36% and 8.62% | PLATELET COUNT [4]: 1436.6 x10E3/uL and 1523 x10E3/uL | ALANINE AMINOTRANSFERASE [4]: 32.4 u/L and 20.5 u/L | ALBUMIN [4]: 3.42 G/DL and 4.17 G/DL | ALKALINE PHOSPHATASE [4]: 217.6 u/L and 314.25 u/L | ASPARTATE AMINOTRANSFERASE [4]: 80.2 u/L and 91.75 u/L | BLOOD UREA NITROGEN [4]: 14.8 mg/dL and 15.25 mg/dL | CARBON DIOXIDE [4]: 25.75 mmol/L | CHLORIDE [4]: 109.8 MEQ/L and 108.25 MEQ/L | CHOLESTEROL [4]: 58.4 mg/dL and 56 mg/dL | CREATINE PHOSPHOKINASE [4]: 257.6 u/L and 601.5 u/L | CREATININE [4]: 0.52 mg/dL and 0.5 mg/dL | GLUCOSE [4]: 127.2 mg/dL and 121.75 mg/dL | LACTATE DEHYDROGENASE [4]: 84.6 u/L and 185.75 u/L | LIPASE [4]: 17 u/L and 8.25 u/L | PHOSPHORUS [4]: 10.22 mg/dL and 12.03 mg/dL | POTASSIUM [4]: 6.26 MEQ/L and 5.68 MEQ/L | SODIUM [4]: 151.2 MEQ/L and 152 MEQ/L | TOTAL BILIRUBIN [4]: 0.14 mg/dL and 0.3 mg/dL | TOTAL PROTEIN [4]: 5.84 G/DL and 6.38 G/DL | URIC ACID [4]: 0.98 mg/dL and 1.82 mg/dL | ABSOLUTE BASOPHIL [5]: 120 cells/µL | ABSOLUTE EOSINOPHIL [5]: 60 cells/µL | ABSOLUTE LYMPHOCYTE [5]: 7970 cells/µL | ABSOLUTE MONOCYTE [5]: 180 cells/µL | ABSOLUTE SEGMENTED NEUTROPHIL [5]: 970 cells/µL | ABSOLUTE BASOPHIL [6]: 110 cells/µL | ABSOLUTE EOSINOPHIL [6]: 140 cells/µL | ABSOLUTE LYMPHOCYTE [6]: 11000 cells/µL | ABSOLUTE MONOCYTE [6]: 270 cells/µL | ABSOLUTE SEGMENTED NEUTROPHIL [6]: 2010 cells/µL | BASOPHIL [6]: 0.75% | EOSINOPHIL [6]: 1.01% | ERYTHROCYTE COUNT [6]: 8.16 x10E6/uL | HEMATOCRIT [6]: 47.35% | HEMOGLOBIN [6]: 15.56 G/DL | LEUKOCYTE COUNT [6]: 13.61 x10E3/uL | LYMPHOCYTE [6]: 82.08% | MEAN CORPUSCULAR HEMOGLOBIN [6]: 19.08 pg | MEAN CORPUSCULAR HEMOGLOBIN CONCENTRATION [6]: 32.87 G/DL | MEAN CORPUSCULAR VOLUME [6]: 58.02 fL | MONOCYTE [6]: 1.93% | NEUTROPHIL [6]: 13.77% | PLATELET COUNT [6]: 1300.9 x10E3/uL | CARBON DIOXIDE [5]: 24 mmol/L | ALANINE AMINOTRANSFERASE [6]: 28.5 u/L | ALBUMIN [6]: 3.56 G/DL | ALKALINE PHOSPHATASE [6]: 137.2 u/L | ASPARTATE AMINOTRANSFERASE [6]: 79.3 u/L | BLOOD UREA NITROGEN [6]: 16.3 mg/dL | CHLORIDE [6]: 108.2 MEQ/L | CHOLESTEROL [6]: 59.4 mg/dL | CREATINE PHOSPHOKINASE [6]: 132.4 u/L | CREATININE [6]: 0.68 mg/dL | GLUCOSE [6]: 127.2 mg/dL | LACTATE DEHYDROGENASE [6]: 83.6 u/L | LIPASE [6]: 12.4 u/L | PHOSPHORUS [6]: 8.3 mg/dL | POTASSIUM [6]: 5.48 MEQ/L | SODIUM [6]: 152.3 MEQ/L | TOTAL BILIRUBIN [6]: 0.18 mg/dL | TOTAL PROTEIN [6]: 6.53 G/DL | URIC ACID [6]: 0.96 mg/dL
